# Source: patent US20070031356A1, “Beta-carotene modulation of gene expression” (priority 2005, published 2007)
# Where “and” joins values, the source holds several entries; their conditions need not be identical. Equal values may be shown once. Entries after “also recorded” stand apart in the source; their conditions may differ.
# Assays:
# [1] = cited from earlier work
# caspase-3 = experiment: Caspase-3 activity (CaspACE Assay System); assay type: cell-based, human
# Experimental: Cells were supplemented with β-carotene for 2 days and prior to UVA irradiation (270 kJ/m^2). Caspase-3 activity was determined at 5 hours after irradiation. Values are mean±standard error of an experiment with four replicates.
# Caspase-3 activity 5 hours after UVA irradiation was quantified in five separate experiments using the CaspACE™ Assay System (Promega/Catalys, Switzerland).
# HaCaT cells [2] = conditions: cited from earlier work
# [3] = β-carotene supplementation, rodents (e.g. Mathews-Roth, 1982); cited from earlier work
# [4] = β-carotene concentration in culture medium during incubation; assay type: physicochemical; conditions: during the 24 hours of incubation, irrespective of the presence of cells
# Experimental: (§1) β-carotene-containing medium was prepared as follows. Fresh all-E-β-carotene (DSM Nutritional Products, Kaiseraugst, Switzerland) stock solution in THF (containing 0.025% BHT; Fluka Chemie AG, Switzerland) was diluted 1:2 with ethanol and added to cell culture medium to a final concentration of 1.5 μM β-carotene. The solvent concentration in the medium was 0.5% for all treatments. β-carotene-containing medium was prepared fresh for the daily medium changes.
# HaCaT cells [5] = experiment: TaqMan QRT-PCR of key genes; assay type: cell-based, human
# Experimental: Cells were supplemented with β-carotene for 2 days prior to UVA irradiation (270 kJ/m^2) either in normal PBS or D2O-PBS. Gene expression 5 hours after irradiation was determined by quantitative real time polymerase chain reaction. (“QRT-PCR”). Values are geometric mean±standard error of three experiments.
# Key gene regulation was confirmed in three independent cell irradiation experiments using TaqMan® QRT-PCR as described (Wertz, 2004). In these experiments, cells were pretreated with 0.5, 1.5, or 3 μM β-carotene, to analyze for dose-dependent β-carotene effects. In addition, cells were irradiated either in D2O-containing PBS or in H2O-containing PBS, to analyze for the ^1O2 inducibility of genes.
# [6] = test system: HaCaT human keratinocytes; experiment: Affymetrix GeneChip microarray, gene regulation by β-carotene and/or UVA; assay type: cell-based
# Experimental: UVA exposure is thought to cause skin aging mainly by singlet oxygen (^1O2)-dependent pathways. Using microarray hybridization the effect of pretreatment with the ^1O2 quencher β-carotene (1.5 μM) on prevention of UVA-induced gene regulation in HaCaT human keratinocytes was explored.
# The cell culture experiments were carried out as described (Wertz, 2004). Briefly, a subclone of passage 65 HaCaT keratinocytes, selected for differentiation capacity, was used at passages 16 to 23 after subcloning. 2×10^5 cells were seeded per 60 millimeter dish. Starting the following day, the cells were pretreated for 2 days with β-carotene at 1.5 μM, a typical concentration in human plasma after moderate dietary supplementation (Thurmann, 2002).
# as §1
# On day 3 of the experiment, the cells were irradiated with a Hönle sun lamp Sol 500 (270 kJ/m^2; Dr. Hönle, Germany).
# Five independent, factorially designed cell irradiation experiments were analyzed by microarray hybridization. For each experiment, one chip was hybridized per treatment condition. GeneChip® analysis was done as described in Siler, 2004, which is incorporated by reference as if recited in full herein. Gene regulation by β-carotene and/or UVA was calculated relative to placebo.
# Changes in gene expression were included in further analysis only if the change factor was ≧0.5 or ≦−0.5, and if unpaired t-tests yielded p values ≦0.05. Upregulations by a change factor of ≧0.5 are labeled bold, downregulations by a change factor of ≦−0.5 are labeled bold italics. (Table 1.) To identify the pathways affected by the treatments functional information on the genes was retrieved from public literature databases.
# [7] = UVA 270 kJ/m^2, 5 hours after irradiation
# [8] = UVA 270 kJ/m^2 after 1.5 μM 2 days, vs placebo
# [9] = unirradiated, 1.5 μM 2 days, vs placebo
structure (smiles),measurement,setting,value
"CC1=C(/C=C/C(C)=C/C=C/C(C)=C/C=C/C=C(C)/C=C/C=C(C)/C=C/C2=C(C)CCCC2(C)C)C(C)(C)CCC1 [β-Carotene, all-E-β-carotene]",UV-induced immune suppression,"[1]; (Fuller, 1992)",prevents
same,number of sunburn cells,"[1]; β-carotene supplementation, humans (Garmyn, 1995)",did not alter
same,sunburn erythema after sun exposure,"[1]; β-carotene supplementation, literature studies",alleviates; also recorded: mild reduction; also recorded: mildly reduces
same,caspase-3 activity / apoptosis,"caspase-3; unirradiated cells, β-carotene alone",not sufficient to induce apoptosis; also recorded: Neither UVA nor β-carotene alone activated caspase-3
same,caspase-3 activity,"caspase-3; β-carotene 2 days then UVA 270 kJ/m^2, 5 hours after irradiation",dose-dependent induction of caspase-3 activity
same,UVA induction of MMP-3,"HaCaT cells [2]; (Wertz, 2004)",downregulated
same,basal and 1O2-induced expression of MMP-1,"HaCaT cells [2]; (Wertz, 2004)",reduced
same,basal MMP-1 expression,"HaCaT cells [2]; unirradiated (Wertz, 2004)",mildly reduces
same,"basal expression of MMP-10, QRT-PCR in independent experiments","HaCaT cells [2]; unirradiated (Wertz, 2004)",confirmed
same,skin carcinogenesis,[3],reduced
same,β-carotene concentration in medium dropped to,[4],approximately 50%
same,UVA-induced GADD34 transcription (QRT-PCR),HaCaT cells [5]; [7],enhancement
same,UVA-induced GADD153 transcription (QRT-PCR),HaCaT cells [5]; [7],enhancement
same,MMP-10 induction by UVA/D2O,HaCaT cells [5]; UVA/D2O,dose-dependently inhibited
same,integrinα6 transcription (QRT-PCR),"HaCaT cells [5]; irradiated and unirradiated HaCaT cells, 5 hours after irradiation",confirmed downregulation; also recorded: inhibition
same,BPAG1; bullous pemphigoid antigen (M69225) change factor,[6]; [8],Downregulation
same,C-FOS (V01512) change factor,[6]; [8],1.36
same,ERF-2 (X78992) change factor,[6]; [8],enhanced
same,GADD34 (U83981) change factor,[6]; [8],enhanced
same,GADD153 (S62138) change factor,[6]; [8],upregulation; also recorded: enhanced
same,IGF-BP 3; insulin-like growth factor-binding protein-3 gene (M35878) change factor,[6]; [8],1.73
same,IL6; Interleukin 6; IFNβα2a (X04430) change factor,[6]; [8],enhanced
same,ILK; integrin-linked kinase (U40282) change factor,[6]; [8],Downregulation
same,JUND (X56681) change factor,[6]; [8],1.83 and 1.66
same,KLF4; EZF (epithelial Zn finger) (U70663) change factor,[6]; [8],upregulation
same,Lekti (AJ228139) change factor,[6]; [8],upregulated
same,MMP10 (X07820) change factor,[6]; [8],inhibited
same,PAR-2; proteinase activated receptor-2 (U34038) change factor,[6]; [8],1.34
same,TDAG51; PQ-rich protein; PHLDA1 (Z50194) change factor,[6]; [8],enhanced
same,TRIP14; ′2-5′ oligoadenylate synthetase (AJ225089) change factor,[6]; [8],0.67
same,c-myc (V00568) change factor,[6]; [8],2.45
same,connexin 31 (AF099730) change factor,[6]; [8],upregulation
same,connexin 45 (U03493) change factor,[6]; [8],Downregulation
same,integrin α6 (X53586) change factor,[6]; [8],Downregulation
same,serpinB1 (M93056) change factor,[6]; [8],upregulated
same,number of genes regulated by co-treatment with UVA radiation and β-carotene,[6]; UVA + β-carotene,1142 genes
same,UVA induction of PAR-2,[6]; UVA-irradiated keratinocytes,further increased
same,UVA upregulation of IFNα/Iβ targets,[6]; UVA-irradiated keratinocytes,reduced
same,UVA upregulation of VEGF,[6]; UVA-irradiated keratinocytes,reduced
same,desmocollins gene regulation,[6]; UVA/β-carotene treatment,Downregulation
same,TIMP-1 gene regulation,[6]; all treatments,not influenced
same,UVA-regulated genes for which β-carotene enhanced the UVA effect,[6]; of 568 UVA-regulated genes,180 genes
same,UVA-regulated genes for which β-carotene had no effect,[6]; of 568 UVA-regulated genes,245 genes
same,UVA-regulated genes for which β-carotene reduced the UVA-induced effect,[6]; of 568 UVA-regulated genes,143 genes
same,co-treatment-regulated genes not regulated by only UVA or β-carotene alone,[6]; of the 1142 genes,610 genes
same,Bax gene regulation,[6]; unirradiated keratinocytes,upregulated
same,JUN-B gene regulation,[6]; unirradiated keratinocytes,downregulated
same,VEGF gene regulation,[6]; unirradiated keratinocytes,mildly downregulated
same,BMP2a; bone morphogenetic protein 2a (bmp-2a) (M22489) change factor,[6]; [9],downregulated
same,BPAG1; bullous pemphigoid antigen (M69225) change factor,[6]; [9],decreased
same,BUB1; mitotic checkpoint kinase (AF053305) change factor,[6]; [9],downregulated
same,"COX-2, cyclooxygenase-2 (U04636) change factor",[6]; [9],mildly downregulated
same,DNA ligase III (X84740) change factor,[6]; [9],downregulated
same,EGFR; precursor of epidermal growth factor receptor (X00588) change factor,[6]; [9],downregulated
same,ENDOGL-2 (AB020735) change factor,[6]; [9],upregulated
same,FRA-2 (X16706) change factor,[6]; [9],downregulated
same,GEM (U10550) change factor,[6]; [9],downregulated
same,HOXD4 (X59373) change factor,[6]; [9],downregulated
same,ID-2H (D13891) change factor,[6]; [9],downregulated
same,IGF-BP 3; insulin-like growth factor-binding protein-3 gene (M35878) change factor,[6]; [9],0.22
same,IL6; Interleukin 6; IFNβα2a (X04430) change factor,[6]; [9],upregulated
same,IL18; IGIF (IFNγ inducing factor) (D49950) change factor,[6]; [9],downregulated
same,IRF-9; p48; ISGF3γ; Interferon-stimulated transcription factor 3γ (M97935) change factor,[6]; [9],−0.18
same,KRS-2; stress responsive serine/threonine protein kinase (U60207) change factor,[6]; [9],downregulated
same,MMP10 (X07820) change factor,[6]; [9],reduced
same,NCF2; p67-phox; neutrophil oxidase factor (M32011) change factor,[6]; [9],downregulated
same,NOTCH3 (U97669) change factor,[6]; [9],downregulated
same,"NRF2, subunit beta 1 (U13045) change factor",[6]; [9],downregulated
same,RETSDR1; retinal short-chain dehydrogenase/reductase (AF061741) change factor,[6]; [9],induced
same,RPA; replication protein A 14kda subunit (rpa) (L07493) change factor,[6]; [9],−0.04
same,Requiem (AF001433) change factor,[6]; [9],upregulated
same,SMAD1 (U59423) change factor,[6]; [9],−0.27
same,"TIEG, EGRα (AF050110) change factor",[6]; [9],downregulated; also recorded: downregulation
same,TLR3; toll-like receptor 3 (U88879) change factor,[6]; [9],upregulated
same,TRIP14; ′2-5′ oligoadenylate synthetase (AJ225089) change factor,[6]; [9],−0.07
same,TSSC3/IPL (AF001294) change factor,[6]; [9],downregulation
same,WNT5A (I20861) change factor,[6]; [9],downregulated
same,"collagen type IV, α-5 (COL4A5) (M58526) change factor",[6]; [9],decreased
same,integrin α6 (X53586) change factor,[6]; [9],decreased
same,keratin 15 (J00124) change factor,[6]; [9],decreased
same,number of genes regulated by β-carotene,"[6]; β-carotene alone, change factor ≧0.5 or ≦−0.5, p ≦0.05",381 genes
